Measured values published in patent US20230028659A1, “THERAPEUTIC COMPOSITIONS AND METHODS FOR PREVENTION AND TREATMENT OF DIASTOLIC DYSFUNCTION” (AMBETEX PTY LTD, priority 2019, published 2023).

What was measured:
Male C57BL6 mice [1] = test: Aβ40 administration study; format: in vivo; set-up: dose or concentration left out as unconfirmed; details: i.p. for 5 weeks vs ScrAβ40, FIG. 11A
Description: Aβ40 administration study: Lyophilised recombinant Aβ40 (Millipore) and scrambled control peptide (ScrAβ40; Millipore) were resuspended in 1% NH4OH and aliquoted at 200 ng/ml in H2O and stored at −80° C. for no longer than 4 weeks. Male C57BL6 mice were obtained from the Animal Resource Centre (Perth, Wash.) at 4 weeks of age and housed with 4 mice per cage on a 12 hr light/dark cycle at a temperature of 22° C. and a constant humidity with a normal rodent diet. At 12 weeks of age, mice were grouped according to body mass and composition, determined by EchoMRI. […] After 4 weeks of peptide administration, cardiac function was assessed by echocardiography as follows. Mice were anaesthetised with inhalation of 1.5% isoflurane anaesthesia and echocardiography was performed using the Phillips HD15 diagnostic ultrasound system with a 15 MHz linear-array transducer by an experienced veterinarian. The velocity of blood flow through the mitral valve was analysed using Doppler mode imaging. […] Doppler imaging was also utilised to measure the velocity of blood flow through the aortic valve. […] An estimation of LV mass was calculated from the m-mode imaging by using the formula (1.05 [LVIDd+LVPWd+IVSd]^3−[LVIDd]^3) by Troy et al. (1972). […] Plasma […] was measured using a high sensitivity ELISA kit (Wako Diagnostics) and plasma that was diluted 1:10 with assay buffer.

Male C57BL6 mice [2] = test: Aβ42 and mGluR5 NAM administration study; format: in vivo; details: Basimglurant 1 mg/kg oral gavage or vehicle plus Aβ42 i.p. once/day; for plasma Aβ42 compared with the ScrAβ42+Veh group: FIG. 9A; for Peak E wave compared with the ScrAβ42+Veh group: FIG. 9B
Description: Basimglurant (MedChemExpress) was resuspended in 100% DMSO before being diluted in a hydroxypropyl cellulose solution to give a final solution containing 0.25 mg/mL Basimglurant in 10% hydroxypropyl cellulose and 5% DMSO. A vehicle solution containing 10% hydroxypropyl cellulose and 5% DMSO was also made. Aliquots of both drug and vehicle were stored at −80° C. until required. Male C57BL6 mice were obtained from the Animal Resource Centre (Perth, Wash.) at 4 weeks of age and housed with 4 mice per cage on a 12 hr light/dark cycle at a temperature of 22° C. and a constant humidity with a normal rodent diet. At 12 weeks of age, mice were grouped according to body mass and composition, determined by EchoMRI. […] After 4 weeks of drug and peptide administration, cardiac function was assessed by echocardiography as follows. Mice were anaesthetised with inhalation of 1.5% isoflurane anaesthesia and echocardiography was performed using the Phillips HD15 diagnostic ultrasound system with a 15 MHz linear-array transducer by an experienced veterinarian. The velocity of blood flow through the mitral valve was analysed using Doppler mode imaging. […] Doppler imaging was also utilised to measure the velocity of blood flow through the aortic valve. The measurements were then used to calculate the ejection time (LVET), peak aortic flow and heart rate. M-mode imaging of the left ventricle was used to measure the thickness of the inter-ventricular septum (IVS), left ventricular internal diameter (LVID) and left ventricular posterior wall (LVPW) in both diastole (d) and end-systole (s) as well as systolic measures such as ejection fraction and fractional shortening. An estimation of LV mass was calculated from the m-mode imaging by using the formula (1.05[LVIDd+LVPWd+IVSd]^3−[LVIDd]^3) by Troy et al. (1972). The myocardial performance index (MPI), a global index of both diastolic and systolic cardiac function, was calculated using the formula ([IVCT+IVRT]/LVET), by Tei et al. (1995). Mice were humanely killed by cervical dislocation 1 week later. Blood was obtained immediately following by cardiac puncture and the heart, and other tissues were immediately removed. Hearts were washed in ice cold PBS and weighed prior to being snap frozen in liquid nitrogen.

[3] = system: mice on HFD (established obesity); test: Basimglurant-High Fat Diet (HFD) treatment study; format: in vivo; details: obese mice
Description: Basimglurant-High Fat Diet (HFD) treatment study: At 12 weeks of age, mice (n=30) were placed on a HFD with 43% of calories from fat (23.5% by weight; SF04-001 High Fat Rodent Diet Based on D12451, Specialty Feeds, Glen Forrest, Wash.). After 13 weeks of the diet period, echocardiography was performed on all mice to obtain pre-drug treatment measures of cardiac function. Mice were allocated to treatment groups so that measures of cardiac function and morphology were matched as best as possible. Basimglurant (MedChemExpress) was resuspended in 100% DMSO before being diluted in a hydroxypropyl cellulose solution to give a final solution containing 0.25 mg/mL Basimglurant in 10% hydroxypropyl cellulose and 5% DMSO. A vehicle solution containing 10% hydroxypropyl cellulose and 5% DMSO was also made. Aliquots of both drug and vehicle were stored at −80° C. until required. The HFD/Basimglurant group was administered 1 mg/kg of Basimglurant per day by oral gavage, while the HFD/control group received an equivalent volume of vehicle. Echocardiography was then performed following 4 weeks of the treatment period to obtain post-drug treatment measures of cardiac function. Following 5 weeks of the drug administration, mice were humanely killed via cervical dislocation and blood was immediately obtained via cardiac puncture and stored in a heparinised tube. […]

Male C57BL6 mice [4] = test: Aβ42 administration study: GTT with glucose tracers, cardiac metabolism; format: in vivo
Description: Male C57BL6 mice were obtained from the Animal Resource Centre (Perth, Wash.) at 4 weeks of age and housed with 4 mice per cage on a 12 hr light/dark cycle at a temperature of 22° C. and a constant humidity with a normal rodent diet. At 12 weeks of age, mice were grouped according to body mass and composition, determined by EchoMRI. […] An i.p. glucose tolerance test (GTT) was performed on the final treatment day following an overnight fast. Mice were administered 2 g/kg lean mass of glucose including radioactive glucose tracers, prepared as follows. 100 μl of 1 μCi/μ1 glucose analogue, [^3H]-2-deoxyglucose (2-DOG), and 500 μl of 200 μCi/mL U-^14C glucose were evaporated to dryness before redissolving the radioactive tracers in 1 mL of 50% glucose. This produced a 50% glucose solution containing 100 μCi/mL [^3H]-2-DOG and 100 μCi/mL U-^14C glucose. The tail tip of each mouse was cut off and the blood glucose concentration of a blood sample was measured using an AccuCheck II glucometer (Roche). The GTT was initiated via intraperitoneal injection of the radiolabelled glucose solution (2 g/kg body weight, 10 uCi/animal) into the overnight-fasted mice. Further blood samples were taken at 15, 30, 45, 60 and 90 minutes after the injection for the measurement of blood glucose. Blood samples (30 μl) were also taken from the tail tip at each time point and diluted in 100 μl of saline. These samples were then centrifuged and the supernatant collected. 50 μl of the supernatant was diluted in 500 μl of distilled water and then suspended in 4 mL of Ultima Gold XR scintillation fluid (Packard Bioscience). Blood radioactivity was determined at each time point by performing liquid scintillation counting on each solution using the Beckman scintillation counter (LS6000 SC). At the conclusion of the GTT, mice were killed via cervical dislocation. Blood was obtained immediately following by cardiac puncture and the heart, and other tissues were immediately removed. Hearts were washed in ice cold PBS and weighed prior to being snap frozen in liquid nitrogen. The heart (30 mg), epididymal fat pad (30 mg and quadriceps skeletal muscle (30 mg) were homogenised in 1.5 ml of distilled water. The homogenate was centrifuged at 3000 rpm for 10 min at 4° C. 400 μl of the supernatant was diluted into 1.6 mL of distilled water and then suspended in 14 mL of Ultima Gold XR scintillation fluid (Packard Bioscience). The radioactivity of each sample (from both [^3H]-2-DOG6P and [^3H]-2-DOG) was determined by liquid scintillation counting using the Beckman scintillation counter (LS6000 SC).
The ^3H radioactivity was used to measure glucose uptake into each tissue.
To determine the incorporation of U-^14C glucose into triglyceride and the total triglyceride content in the heart, an extraction of triglyceride was carried out using a chloroform/methanol mixture. Samples of heart (30 mg) were hand-homogenised in 2 mL of chloroform/methanol (2:1) and the homogeniser rinsed in a further 2 mL of chloroform/methanol (2:1), and the washings being added to the original extract in 10 mL tubes. The tubes were tightly capped and mixed on a rotator overnight to maximise extraction of the triglycerides. […] The amount of U-^14C glucose clearance into the lipid fraction was measured by suspending 100 μl of the triglyceride solution in 5 mL of Ultima Gold XR scintillation fluid (Packard Bioscience), followed by scintillation counting using the Beckman scintillation counter (LS6000 SC).

Male C57BL6 mice [5] = test: Aβ42 administration study: cardiac function by echocardiography; format: in vivo
Description: After 4 weeks of peptide administration, cardiac function was assessed by echocardiography as follows. Mice were anaesthetised with inhalation of 1.5% isoflurane anaesthesia and echocardiography was performed using the Phillips HD15 diagnostic ultrasound system with a 15 MHz linear-array transducer by an experienced veterinarian. The velocity of blood flow through the mitral valve was analysed using Doppler mode imaging. […] Doppler imaging was also utilised to measure the velocity of blood flow through the aortic valve. The measurements were then used to calculate the ejection time, peak aortic flow and heart rate. M-mode imaging of the left ventricle was used to measure the thickness of the inter-ventricular septum (IVS), left ventricular internal diameter (LVID) and left ventricular posterior wall (LVPW) in both diastole (d) and end-systole (s) as well as systolic measures such as ejection fraction and fractional shortening. An estimation of LV mass was calculated from the m-mode imaging by using the formula (1.05[LVIDd+LVPWd+IVSd]^3−[LVIDd]^3) by Troy et al. (1972). Mice were humanely killed by cervical dislocation 1 week later. Blood was obtained immediately following by cardiac puncture and the heart, and other tissues were immediately removed. Hearts were washed in ice cold PBS and weighed prior to being snap frozen in liquid nitrogen.

Male C57BL6 mice [6] = test: Aβ42 administration study: heart gene expression and western blotting (NLRP3 inflammasome, PKD); format: in vivo; details: chronic administration
Description: (§1) Total mRNA from the tissues was extracted by homogenizing ˜20-30 milligrams of tissue in 1 ml of Trizol followed by incubation at room temperature (RT) for 5 min. 200 μL of chloroform was added to the homogenate, shaken for 15 seconds and incubated for 1 min at RT before centrifuging at 12,000 g for 10 min at 4° C. for extracting the upper aqueous phase. An equal volume (350 μl for cell lysate/450 μL for tissue) of 70% ethanol was added to cell/tissue samples and they were further purified with RNeasy spin columns (the RNeasy®min i Kit, Qiagen). Complementary DNA (cDNA) was synthesised using the SuperScript™ III transcription system (Invitrogen). cDNA was quantified by OliGreen assay (Quant-iT™ OliGreen® ssDNA Assay Kit; Invitrogen). All primers were designed in-house using the Beacon Primer Designer program software and synthesised by Gene Works (Adelaide, Australia). Primer sequence efficiency was tested over a wide concentration range. Gene expression levels were quantified using the FastStart Universal SYBR Green Master (ROX; Roche Applied-Science) on the MX3005P™ Multiplex Quantitative PCR (QPCR) system (Stratagene). Log-transformed CT values were normalised to cDNA concentration to determine relative gene expression levels.
Approximately 20 mg of ventricle tissue was homogenised in ice-cold lysis buffer (50 mM Tris pH7.5, 1 mM EDTA, 1 mM EGTA, 10% glycerol, 1% triton X-100, 50 mM NaF, 5 mM Na4P2O7, 1 mM Na3VO4, 1 mM DTT, protease inhibitor cocktail) and protein content was determined using the BCA method. […] Blocked membranes were exposed to primary antibodies towards pro-caspase-1, mature caspase 1, total PKD, PKD phosphorylated at ser744 and 748 (Cell Signalling Technology, Danvers, USA) and α-tubulin (Sigma-Aldrich, St. Louis, USA). Membranes were visualised and bands quantified by using the ChemiDoc™ XRS+ with Image Lab™ software.

[7] = system: Primary mouse neonatal ventricular cardiomyocytes; test: Neonatal ventricular cardiomyocyte experiments, antagonist studies (gene expression); format: cell-based; details: 10 uM, cardiomyocytes exposed to Aβ42, FIG. 6B
Description: as §1, with “Primer sequence efficiency was tested over a wide concentration range.” left out, “Log-transformed CT values were normalised to cDNA concentration to determine relative gene expression levels.” left out
Neonatal ventricular cardiomyocyte experiments: Primary mouse neonatal ventricular cardiomyocytes were isolated from one day old neonate mice. […] 48 hr after infection, cells were harvested and homogenized in protein lysis buffer, total protein concentration was determined and western blotting was performed, as described above. […]

Aβ40: Lyophilised recombinant Aβ40 (Millipore), amyloid beta peptide
plasma Aβ40 (Male C57BL6 mice [1]): significantly increased

Cc1nc(C#Cc2ccnc(Cl)c2)c(C)n1-c1ccc(F)cc1 [Basimglurant]
plasma Aβ42 compared with the ScrAβ42+Veh group (Male C57BL6 mice [2]): significantly increased | Peak E wave compared with the ScrAβ42+Veh group (Male C57BL6 mice [2]; echocardiography after 4 weeks): reduced in the Aβ42+Veh group, but not in the Aβ42+Basimglurant groups | myocardial performance index (MPI) compared with the ScrAβ42+Veh group (Male C57BL6 mice [2]; echocardiography after 4 weeks, FIG. 9C): increased in the Aβ42+Veh group, but not in the Aβ42+Basimglurant groups | DT after treatment ([3]; 13 weeks HFD then 4 weeks daily 1 mg/kg oral gavage, FIG. 12A): 100 % of baseline levels | plasma Aβ42 levels ([3]; daily 1 mg/kg oral gavage, FIG. 12B): did not have any effect

Aβ42: Lyophilised recombinant Aβ42 (Millipore), amyloid beta peptide of 42 amino acids
whole body glucose tolerance or plasma insulin throughout the GTT (Male C57BL6 mice [4]; after five weeks of peptide, vs ScrAβ42): no difference | glucose incorporation into TAG (14C-glucose labelling) (Male C57BL6 mice [4]; heart, FIG. 1C): greater | total TAG (Male C57BL6 mice [4]; heart, FIG. 1D): increased | cardiac gene expression (inflammation, endoplasmic reticulum stress) (Male C57BL6 mice [4]; heart, FIG. 1E): gene expression changes indicative of cardiac stress responses | increase in plasma Aβ42 compared with administration of ScrAβ42 (Male C57BL6 mice [4]; i.p. 1 μg/day for five weeks, FIG. 1A): approximately 3 fold | deceleration time (Male C57BL6 mice [5]; echocardiography, vs ScrAβ42, FIG. 2D): increased | E normalised by isovolumetric relaxation time (IVRT) (Male C57BL6 mice [5]; echocardiography, vs ScrAβ42, FIG. 2E): no significant difference | fractional shortening (Male C57BL6 mice [5]; echocardiography, vs ScrAβ42, FIG. 2F): reduced | ejection fraction (Male C57BL6 mice [5]; echocardiography, vs ScrAβ42, FIG. 2G): reduced | gross heart weight (Male C57BL6 mice [5]; five weeks of peptide vs ScrAβ42, FIG. 2A): no effect | internal dimensions of the left ventricle (LVIDd) (Male C57BL6 mice [5]; five weeks of peptide vs ScrAβ42, FIG. 2B): no effect | phosphorylation of PKD at ser744 and 748 (Male C57BL6 mice [6]; FIG. 6A): increased | expression of genes associated with priming of the NLRP3 inflammasome (Nlrp3, Ifna, Il18) (Male C57BL6 mice [6]; heart, FIG. 5A): increased | mature caspase 1 (Male C57BL6 mice [6]; western blot, FIG. 5B): increased | pro-caspase 1 (Male C57BL6 mice [6]; western blot, FIG. 5B): increased | plasma Aβ42 compared with the ScrAβ42+Veh group (Male C57BL6 mice [2]): elevated | Peak E wave compared with the ScrAβ42+Veh group (Male C57BL6 mice [2]; echocardiography after 4 weeks): reduced

O=C1NCCCc2c1oc1ccc(O)cc21 [CID755673]
Aβ42-induced increase in inflammatory gene expression [7]: prevented
